The source of these data is PubChem BioAssay (NCI).

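All cell lines were grown in 96-well plates and treated with compound for 48 hours. The concentration for full growth arrest is given as TGI.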

Some test systems named below: XF 498 CNS; IGROV1 ovarian; SF-268 CNS; DLD-1 colon; LXFL 529 NSCLC; HOP-62 NSCLC; CCRF-CEM leukemia; DMS 114 small cell lung; SK-MEL-5 melanoma; KM20L2 colon; DMS 273 small cell lung; SNB-78 CNS; M19-MEL melanoma; HOP-18 NSCLC.
Common to all, as to assay: DTP human tumour cell line panel, 48 h

The TGI is the concentration giving total growth inhibition. High values mean less potent growth arrest, low ones more potent growth arrest.

Turning to `CC1=NN(C(=O)c2ccccc2O)C(=O)/C1=C/c1ccccc1O`, the TGI with XF 498 CNS is more than 100 µM; in the experiment on IGROV1 ovarian it was 3.63 µM; with SF-268 CNS, more than 75.4 µM; in the experiment with DLD-1 colon, more than 100 µM; in the experiment with LXFL 529 NSCLC, more than 100 µM; in the experiment on HOP-62 NSCLC, 39.4 µM. For the same compound, the TGI in the experiment with CCRF-CEM leukemia was more than 100 µM; in the experiment on DMS 114 small cell lung it was 8.86 µM; in the experiment on SK-MEL-5 melanoma, 14.2 µM; with KM20L2 colon, more than 100 µM.
With `O=C(c1ccco1)N(C(=S)N1CCN(c2ccccn2)CC1)C1CCCCC1`, the TGI in the experiment with IGROV1 ovarian, in the experiment with DMS 273 small cell lung, in the experiment with SF-268 CNS, in the experiment with DLD-1 colon, in the experiment on LXFL 529 NSCLC and in the experiment with HOP-62 NSCLC was more than 100 µM each time. The concentration for total growth inhibition (TGI) in the experiment on SNB-78 CNS, in the experiment with CCRF-CEM leukemia, in the experiment on DMS 114 small cell lung, with SK-MEL-5 melanoma, in the experiment on M19-MEL melanoma and in the experiment with KM20L2 colon was more than 100 µM in each case. The compound also gave a TGI in the experiment on HOP-18 NSCLC of more than 100 µM.
Take `CC(C)C1CCC/C=C/C=C/C=C/C=C/C(OC2OC(C)C(O)C(N)C2O)CC2OC(O)(CC(O)CC(O)C(O)CCC(=O)O1)CC(O)C2C(=O)O` (stereo unspecified): the total growth inhibition concentration (TGI) in the experiment on IGROV1 ovarian, in the experiment with SF-268 CNS, with LXFL 529 NSCLC, with HOP-62 NSCLC, in the experiment on SNB-78 CNS and in the experiment on CCRF-CEM leukemia was more than 52.5 µM each time. For the same compound, the concentration for total growth inhibition (TGI) in the experiment with DMS 114 small cell lung, in the experiment on SK-MEL-5 melanoma, in the experiment with M19-MEL melanoma, in the experiment with KM20L2 colon and with HOP-18 NSCLC was more than 52.5 µM each time.
`COC(=O)C1[C@@H](C(=O)OC)C12C=Cc1ccccc1C=C2` (stereo partly specified): the TGI in the experiment on XF 498 CNS, in the experiment on IGROV1 ovarian, with DMS 273 small cell lung, in the experiment on SF-268 CNS, with DLD-1 colon and with LXFL 529 NSCLC was more than 100 µM in each case. Further, the TGI in the experiment with HOP-62 NSCLC, with SNB-78 CNS, with CCRF-CEM leukemia, with DMS 114 small cell lung, in the experiment on SK-MEL-5 melanoma and in the experiment on M19-MEL melanoma was more than 100 µM in each case. For the same compound, the TGI in the experiment with KM20L2 colon is more than 100 µM.
In the case of `C#C[C@]1(O)CCC2C3CCc4cc(Oc5nc(F)nc(-c6c7cc8ccccc8cc7c7n6CCS7)n5)ccc4C3CCC21C` (stereo partly specified), the TGI with XF 498 CNS, with IGROV1 ovarian, in the experiment on DMS 273 small cell lung, with SF-268 CNS, in the experiment on DLD-1 colon and in the experiment with LXFL 529 NSCLC was more than 100 µM each time. Moreover, the TGI in the experiment with HOP-62 NSCLC is more than 100 µM; in the experiment on SNB-78 CNS, more than 100 µM; in the experiment with CCRF-CEM leukemia, more than 100 µM; with DMS 114 small cell lung it was 50.8 µM; in the experiment on SK-MEL-5 melanoma it was more than 100 µM; in the experiment on M19-MEL melanoma it was more than 100 µM. Moreover, the TGI with KM20L2 colon was 99.6 µM; in the experiment with HOP-18 NSCLC it was more than 100 µM.
Regarding `N#Cc1c(Cl)/c(=C/O)c(=O)n2c1nc1ccccc12`, the TGI in the experiment with IGROV1 ovarian, in the experiment on SF-268 CNS, with HOP-62 NSCLC, in the experiment on CCRF-CEM leukemia and with SK-MEL-5 melanoma was more than 100 µM each time.
In the case of `O=c1oc2ccccc2nc1/C=C(\O)c1ccc([N+](=O)[O-])cc1`, the TGI in the experiment with IGROV1 ovarian, in the experiment on SF-268 CNS, in the experiment with HOP-62 NSCLC, in the experiment on CCRF-CEM leukemia and with SK-MEL-5 melanoma was more than 100 µM throughout.
For `CC1=CC(=O)C(=O)C2=C1OC1(C2)C(C)CCC2C3(C)CCC(O)C(C)(C)C3CCC21C` (stereo unspecified), the TGI with XF 498 CNS worked out at 34 µM; in the experiment with IGROV1 ovarian, 34.2 µM; with DMS 273 small cell lung, 60.9 µM; in the experiment with SF-268 CNS, 63 µM; with DLD-1 colon it was 41.8 µM; in the experiment with LXFL 529 NSCLC it was 33.6 µM. For the same compound, the TGI was 35 µM in the experiment on HOP-62 NSCLC; 64.6 µM in the experiment with SNB-78 CNS; 65.2 µM in the experiment with CCRF-CEM leukemia; 33.6 µM with DMS 114 small cell lung; 33.4 µM with SK-MEL-5 melanoma; 34.4 µM in the experiment with M19-MEL melanoma. The total growth inhibition concentration (TGI) in the experiment with KM20L2 colon came to 37.4 µM.
With `C=C(Br)CN(C(C)=O)C1CCCCC1`, the TGI with IGROV1 ovarian, in the experiment with SF-268 CNS, with HOP-62 NSCLC, in the experiment with CCRF-CEM leukemia and with SK-MEL-5 melanoma was more than 100 µM each time.
Turning to `Cc1ccc(SCC(CF)OCn2cc(F)c(=O)[nH]c2=O)cc1` (stereo unspecified), the total growth inhibition concentration (TGI) with IGROV1 ovarian, in the experiment on SF-268 CNS, with HOP-62 NSCLC, in the experiment with CCRF-CEM leukemia and with SK-MEL-5 melanoma was more than 100 µM in each case.
Turning to `CN(C)CCCCN1c2ccccc2Sc2cc(N=[N+]=[N-])ccc21`, the total growth inhibition concentration (TGI) with IGROV1 ovarian was 3.43 µM; in the experiment on SF-268 CNS, 4.62 µM; in the experiment on HOP-62 NSCLC it was 5.22 µM; in the experiment on CCRF-CEM leukemia it was 4.11 µM; in the experiment on SK-MEL-5 melanoma it was 3.18 µM.
With `COC1CC(OC2CCC3(C)C(CCC45CCC(C6=CC(=O)OC6)C(C)(CCC43)C5=O)C2)OC(C)C1O` (stereo unspecified), the TGI in the experiment with IGROV1 ovarian is more than 100 µM; in the experiment on SF-268 CNS, 44 µM; in the experiment on HOP-62 NSCLC, 51.3 µM; with CCRF-CEM leukemia, 50.6 µM; with SK-MEL-5 melanoma it was 41.9 µM.
Regarding `COc1ccc2cc(/C=N\NC(=O)Nc3cccc4ccccc34)ccc2c1`, the total growth inhibition concentration (TGI) in the experiment on IGROV1 ovarian was more than 100 µM; with SF-268 CNS it was more than 100 µM; with HOP-62 NSCLC it was 28.7 µM; in the experiment on CCRF-CEM leukemia, 41.8 µM; with SK-MEL-5 melanoma, more than 100 µM.
As to `CCCCC(=O)NC1(c2cc3ccccc3s2)CCCCC1`, the TGI in the experiment on IGROV1 ovarian, with SF-268 CNS, with HOP-62 NSCLC, in the experiment on CCRF-CEM leukemia and in the experiment with SK-MEL-5 melanoma was more than 100 µM in each case.
In the case of `CCOC(=O)[C@@H]1ON2O[C@H](OC3CCCC3(c3ccccc3)c3ccccc3)C[C@H]3OC(=O)[C@@H]1C32` (stereo partly specified), the TGI with IGROV1 ovarian is more than 100 µM; in the experiment with SF-268 CNS, more than 100 µM; with HOP-62 NSCLC it was more than 100 µM; in the experiment with CCRF-CEM leukemia it was 78.3 µM; in the experiment with SK-MEL-5 melanoma, more than 100 µM.
Consider `O=C(c1cccs1)N(C(=S)N1CCN(c2ccccn2)CC1)C1CCCCC1`, for which the concentration for total growth inhibition (TGI) in the experiment on IGROV1 ovarian, in the experiment with DMS 273 small cell lung, with SF-268 CNS, with DLD-1 colon, with LXFL 529 NSCLC and with HOP-62 NSCLC was more than 100 µM in each case. Besides, the TGI with SNB-78 CNS, with CCRF-CEM leukemia, in the experiment with DMS 114 small cell lung, in the experiment with SK-MEL-5 melanoma, in the experiment with KM20L2 colon and in the experiment on HOP-18 NSCLC was more than 100 µM each time.
On to `CC(=O)NC1C(O)C(O)C(CO)OC1n1ncc(=O)[nH]c1=O` (stereo unspecified), for which the concentration for total growth inhibition (TGI) with IGROV1 ovarian, in the experiment on SF-268 CNS, with HOP-62 NSCLC, in the experiment with CCRF-CEM leukemia and in the experiment on SK-MEL-5 melanoma was more than 100 µM in each case.
Take `C(=NCc1ccccc1)c1ccccc1-c1ccccc1C=NCc1ccccc1`: the concentration for total growth inhibition (TGI) in the experiment with IGROV1 ovarian, with SF-268 CNS, in the experiment with HOP-62 NSCLC, in the experiment with CCRF-CEM leukemia and in the experiment with SK-MEL-5 melanoma was more than 10 µM throughout.
For the compound `CN(C)C(=O)Nc1cc2c3c(c1)CCCN3CCC2`, the TGI in the experiment with IGROV1 ovarian, in the experiment with SF-268 CNS, in the experiment on HOP-62 NSCLC, with CCRF-CEM leukemia and with SK-MEL-5 melanoma was more than 10 µM in each case.
For the compound `O=c1[nH]c(=S)[nH]n1C(=S)n1[nH]c(=S)[nH]c1=O`, the TGI in the experiment with IGROV1 ovarian, in the experiment on SF-268 CNS, in the experiment on HOP-62 NSCLC, in the experiment with CCRF-CEM leukemia and in the experiment with SK-MEL-5 melanoma was more than 100 µM in each case.
As for `CCC1=CC2Cc3nc4cc(Cl)ccc4c(N)c3C(C1)C2` (stereo unspecified), the TGI in the experiment on IGROV1 ovarian is 20.7 µM; in the experiment with SF-268 CNS it was 16.9 µM; with HOP-62 NSCLC, 22.5 µM; in the experiment on CCRF-CEM leukemia, 15.9 µM; in the experiment on SK-MEL-5 melanoma, 4.05 µM.
With `O=C(O)c1ccc(Nc2nc3ccccc3nc2-c2cccs2)cc1`, the concentration for total growth inhibition (TGI) with IGROV1 ovarian, in the experiment with SF-268 CNS, in the experiment on HOP-62 NSCLC, with CCRF-CEM leukemia and in the experiment with SK-MEL-5 melanoma was more than 100 µM each time.
As for `COc1ccc(-c2c(CN3CCOCC3)sc3nc4ccccc4n23)cc1`, the total growth inhibition concentration (TGI) in the experiment on IGROV1 ovarian is more than 86.8 µM; in the experiment on SF-268 CNS, 98.2 µM; in the experiment with HOP-62 NSCLC it was more than 100 µM; in the experiment with CCRF-CEM leukemia, 56.2 µM; in the experiment with SK-MEL-5 melanoma, 98.8 µM.
In the case of `CC/C=C/C(=O)CC(O)(C(F)(F)F)C(F)(F)F`, the TGI with IGROV1 ovarian, with SF-268 CNS, with HOP-62 NSCLC, with CCRF-CEM leukemia and in the experiment on SK-MEL-5 melanoma was more than 100 µM each time.
Take `OC(C/C(=N\N1CCCCC1)c1cccs1)(C(F)(F)F)C(F)(F)F`: the total growth inhibition concentration (TGI) in the experiment with IGROV1 ovarian, with SF-268 CNS, with HOP-62 NSCLC, in the experiment on CCRF-CEM leukemia and in the experiment with SK-MEL-5 melanoma was more than 10 µM each time.
Regarding `COc1cc(Nc2cnc3cc(F)c(F)cc3n2)cc(OC)c1`, the concentration for total growth inhibition (TGI) in the experiment with IGROV1 ovarian, in the experiment on SF-268 CNS, in the experiment with HOP-62 NSCLC, in the experiment on CCRF-CEM leukemia and in the experiment with SK-MEL-5 melanoma was more than 100 µM each time.
